Measured values from ChEMBL document CHEMBL3046389, “Synthesis and biological evaluation of novel hydroquinone dimethyl ethers as potential anticancer and antimicrobial agents” (2013).

Key:
Assay type in all cases: functional
[1] = tested on: OVCAR-8; test: Growth inhibition of Homo sapiens (human) OVCAR8 cells at 10 uM after 48 hr by SRB assay; conditions: OVCAR-8, 48 h, read-out: GI
[2] = tested on: MOLT-4; test: Growth inhibition of Homo sapiens (human) MOLT4 cells at 10 uM after 48 hr by SRB assay; conditions: MOLT-4, 48 h, read-out: GI
[3] = tested on: UACC-257; test: Anticancer activity against Homo sapiens (human) UACC257 cells after 48 hr by SRB assay; conditions: UACC-257, 48 h
[4] = tested on: SR; test: Anticancer activity against Homo sapiens (human) SR cells after 48 hr by SRB assay
[5] = tested on: LOX IMVI; test: Growth inhibition of Homo sapiens (human) LOXIMVI cells at 10 uM after 48 hr by SRB assay; conditions: read-out: GI
[6] = tested on: HT-29; test: Anticancer activity against Homo sapiens (human) HT-29 cells after 48 hr by SRB assay; conditions: HT-29, 48 h
[7] = tested on: Hs-578T; test: Growth inhibition of Homo sapiens (human) Hs 578T cells at 10 uM after 48 hr by SRB assay; conditions: read-out: GI
[8] = tested on: U-251; test: Growth inhibition of Homo sapiens (human) U251 cells at 10 uM after 48 hr by SRB assay; conditions: U-251, 48 h, read-out: GI
[9] = tested on: Malme-3M; test: Growth inhibition of Homo sapiens (human) MALME-3M cells at 10 uM after 48 hr by SRB assay; conditions: read-out: GI
[10] = tested on: Malme-3M; test: Anticancer activity against Homo sapiens (human) MALME-3M cells after 48 hr by SRB assay
[11] = tested on: UO-31; test: Anticancer activity against Homo sapiens (human) UO31 cells after 48 hr by SRB assay; conditions: UO-31, 48 h
[12] = tested on: SW-620; test: Anticancer activity against Homo sapiens (human) SW620 cells after 48 hr by SRB assay; conditions: SW-620, 48 h
[13] = tested on: HL-60(TB); test: Growth inhibition of Homo sapiens (human) HL-60(TB) cells at 10 uM after 48 hr by SRB assay; conditions: HL-60, 48 h, read-out: GI
[14] = tested on: LOX IMVI; test: Anticancer activity against Homo sapiens (human) LOXIMVI cells after 48 hr by SRB assay
[15] = tested on: TK-10; test: Growth inhibition of Homo sapiens (human) TK10 cells at 10 uM after 48 hr by SRB assay; conditions: TK-10, 48 h, read-out: GI
[16] = tested on: HCT-116; test: Growth inhibition of Homo sapiens (human) HCT116 cells at 10 uM after 48 hr by SRB assay; conditions: HCT-116, 48 h, read-out: GI
[17] = tested on: HOP-62; test: Growth inhibition of Homo sapiens (human) HOP62 cells at 10 uM after 48 hr by SRB assay; conditions: HOP-62, 48 h, read-out: GI
[18] = tested on: K562; test: Growth inhibition of Homo sapiens (human) K562 cells at 10 uM after 48 hr by SRB assay; conditions: K562, 48 h, read-out: GI
[19] = tested on: HCT-15; test: Growth inhibition of Homo sapiens (human) HCT15 cells at 10 uM after 48 hr by SRB assay; conditions: HCT-15, 48 h, read-out: GI
[20] = tested on: NCI-H322M; test: Anticancer activity against Homo sapiens (human) NCI-H322M cells after 48 hr by SRB assay
[21] = tested on: HCC 2998; test: Anticancer activity against Homo sapiens (human) HCC2998 cells after 48 hr by SRB assay; conditions: HCC 2998, 48 h
[22] = tested on: SK-OV-3; test: Growth inhibition of Homo sapiens (human) SKOV3 cells at 10 uM after 48 hr by SRB assay; conditions: SK-OV-3, 48 h, read-out: GI
[23] = tested on: 786-0; test: Anticancer activity against Homo sapiens (human) 786-0 cells after 48 hr by SRB assay; conditions: 786-0, 48 h
[24] = tested on: NCI-H23; test: Anticancer activity against Homo sapiens (human) NCI-H23 cells after 48 hr by SRB assay; conditions: NCI-H23, 48 h
[25] = tested on: NCI-H23; test: Growth inhibition of Homo sapiens (human) NCI-H23 cells at 10 uM after 48 hr by SRB assay; conditions: NCI-H23, 48 h, read-out: GI
[26] = tested on: SK-MEL-28; test: Anticancer activity against Homo sapiens (human) SK-MEL-28 cells after 48 hr by SRB assay; conditions: SK-MEL-28, 48 h
[27] = tested on: CAKI-1; test: Anticancer activity against Homo sapiens (human) CAKI-1 cells after 48 hr by SRB assay; conditions: CAKI-1, 48 h
[28] = tested on: HCT-15; test: Anticancer activity against Homo sapiens (human) HCT15 cells after 48 hr by SRB assay; conditions: HCT-15, 48 h
[29] = tested on: PC-3; test: Anticancer activity against Homo sapiens (human) PC3 cells after 48 hr by SRB assay; conditions: PC-3, 48 h
[30] = tested on: HOP-92; test: Anticancer activity against Homo sapiens (human) HOP92 cells after 48 hr by SRB assay; conditions: HOP-92, 48 h
[31] = tested on: HOP-62; test: Anticancer activity against Homo sapiens (human) HOP62 cells after 48 hr by SRB assay; conditions: HOP-62, 48 h
[32] = tested on: UACC-62; test: Anticancer activity against Homo sapiens (human) UACC62 cells after 48 hr by SRB assay; conditions: UACC-62, 48 h
[33] = tested on: M14; test: Anticancer activity against Homo sapiens (human) M14 cells after 48 hr by SRB assay; conditions: M14, 48 h
[34] = tested on: SK-MEL-5; test: Anticancer activity against Homo sapiens (human) SK-MEL-5 cells after 48 hr by SRB assay; conditions: SK-MEL-5, 48 h
[35] = read-out: LC50 (the source's name)

## COc1ccc(OC)c(/C=C/C(=O)N/N=C/c2ccc(Cl)cc2)c1
[1]
  inhibition of growth at 10 µM: 79%
[2]
  inhibition of growth at 10 µM: 73.7%
[3]
  GI50: 36.5 µM
  LC50 (50% lethal concentration): > 100 µM
  TGI: > 100 µM
[4]
  GI50: 0.039 µM
  TGI: 16.4 µM
[4]; [35]
  CC50: > 100 µM
[5]
  inhibition of growth at 10 µM: 63.3%
[6]
  GI50: 0.0435 µM
  TGI: 1.52 µM
[6]; [35]
  CC50: > 100 µM
[7]
  inhibition of growth at 10 µM: 102%
[8]
  inhibition of growth at 10 µM: 81.6%
[9]
  inhibition of growth at 10 µM: 45.9%
[10]
  TGI: > 100 µM
[10]; [35]
  CC50: > 100 µM
[11]
  GI50: 3.37 µM
  LC50 (50% lethal concentration): > 100 µM
  TGI: > 100 µM
[12]
  GI50: 0.0813 µM
  TGI: > 100 µM
[12]; [35]
  CC50: > 100 µM
[13]
  inhibition of growth at 10 µM: 79.9%
[14]
  GI50: 0.254 µM
  TGI: > 100 µM
[14]; [35]
  CC50: > 100 µM
[15]
  inhibition of growth at 10 µM: 49%
[16]
  inhibition of growth at 10 µM: 94.3%
[17]
  inhibition of growth at 10 µM: 62.1%
[18]
  inhibition of growth at 10 µM: 86%
[19]
  inhibition of growth at 10 µM: 70.6%
[20]
  GI50: 0.666 µM
  TGI: > 100 µM
[20]; [35]
  CC50: > 100 µM
[21]
  GI50: 0.139 µM
  TGI: 1.19 µM
[21]; [35]
  CC50: 6.52 µM
[22]
  inhibition of growth at 10 µM: 105%
[23]
  GI50: 0.326 µM
  TGI: > 100 µM
[23]; [35]
  CC50: > 100 µM
[24]
  GI50: 0.148 µM
  TGI: 2.46 µM
[24]; [35]
  CC50: > 100 µM
[25]
  inhibition of growth at 10 µM: 65.2%
[26]
  GI50: 0.372 µM
  LC50 (concentration killing 50% of cells): > 100 µM
  TGI: > 100 µM
[27]
  GI50: 0.0879 µM
  TGI: > 100 µM
[27]; [35]
  CC50: > 100 µM
[28]
  GI50: 0.0835 µM
  TGI: > 100 µM
[28]; [35]
  CC50: > 100 µM
[29]
  GI50: 0.169 µM
  TGI: > 100 µM
[29]; [35]
  CC50: > 100 µM
[30]
  GI50: 4.43 µM
  TGI: 58.9 µM
[30]; [35]
  CC50: > 100 µM
[31]
  GI50: 0.162 µM
  TGI: 50.2 µM
[31]; [35]
  CC50: > 100 µM
[32]
  GI50: 0.068 µM
  LC50: > 100 µM
  TGI: > 100 µM
[33]
  GI50: 0.0879 µM
  LC50: > 100 µM
  TGI: 6.7 µM
[34]
  GI50: 0.0581 µM
  LC50: > 100 µM
